For data set [1], the system named is optically-induced postsynaptic currents (oPSC) in the NAc. The data set is described as follows: Whole-cell patch clamp of optically-induced postsynaptic currents in NAc slices. Further details: species or system mouse. Particulars: bath applied NBQX and APV together. How it is done:
Mice (n=3 males) that were previously injected with ChR2 in the BLA were deeply anesthetized with isoflurane before decapitation and brain extraction. Coronal 250 μm thick sections were collected in ice cold 95% oxygen, 5% carbon dioxide-bubbled modified artificial cerebrospinal fluid (aCSF, 194 mM sucrose, 30 mM NaCl, 4.5 mM KCl, 1 mM MgCl2, 26 mM NaHCO3, 1.2 mM NaH2PO4, and 10 mM D-glucose) before incubating at 32° C. for 30 min in aCSF (124 mM NaCl, 4.5 mM KCl, 2 mM CaCl2), 1 mM MgCl2, 26 mM NaHCO3, 1.2 mM NaH2PO4, and 10 mM D-glucose). Slices were then stored at room temperature until recording.
Slices were hemisected, placed into a recording chamber, and perfused with temperature controlled aCSF (29-31° C.). NAc medium spiny neurons (MSNs) were visualized using infrared differential interference contrast light microscopy, Q-capture camera, and associated Pro 7 software. […] Optically evoked post synaptic currents (oPSC) were elicited by an optical fiber placed in the recording chamber that delivered 4 ms pulses of light (473 nm) every 20s for a total recording duration of 15 min. oPSCs were recorded using borosilicate glass pipettes (2-4 MΩ resistance) filled with Cesium Methanesulfonate internal solution (135 mM cesium methanesulfonate, 3 mM NaCl, 10 mM HEPES, 0.6 mM EGTA, 4 mM MgATP, 0.3 mM NaGTP, 5 mM QX-314C1, pH 7.2, 310 mOsm). […]

For data set [2] the following is noted: in vivo; cited from earlier work.
Data set [3] has as its system male mice. Nature of the data set: Subthreshold social defeat stress followed by female urine sniffing test (anhedonia). The class given is in vivo, mouse. Particulars: chronic treatment; gonadally intact male mice + SSDS. The procedure:
(§1) Subthreshold social defeat stress: Retired CD1 breeders are singly housed and used as aggressors. Experimental mice are introduced to the home cage of an aggressor for 2 min to initiate the physical attack phase. Afterward, mice are transferred and housed on the opposite side of the aggressor, in the same cage separated by a perforated Plexiglass divider for 15 mins in order to maintain sensory contact. This process is repeated 3 times over a period of ~50 min.
Female Urine Preference Test: is performed 24 hours after the social interaction test as using previously described methods. The amount of time mice spent interacting with a cotton-tipped applicator soaked in either fresh male or female mouse urine during a total of 3 minutes is analyzed by an experimenter blind to the experimental groups.
(§2) For the chronic administration paradigms, silastic tubes (1.02 mm inner diameter×2.16 mm outer diameter) were filled with testosterone (10 mm) or 17β-Estradiol (E2; 1,3 and 10 mm; Sigma-Aldrich, St. Louis, MO, USA). Silastic implants were primed in 0.9% saline at 37° C. overnight prior to their subcutaneous use. Letrozole (1 mg/kg/day; Sigma-Aldrich, St. Louis, MO, USA) was dissolved in propylene glycol (MP Biomedicals, Santa Ana, CA, USA) and administered through ALZET minipumps (Model 1002, 0.25 μl/hour, 14 days; Cupertino, CA, USA). DHED (synthesized using previously described methods) was dissolved in 0.9% saline and administered through ALZET minipumps (Model 1002, 0.25 μl/hour, 14 days; Cupertino, CA, USA) at a dose of […]. Flutamide was administered through 1.5 mg slow-release subcutaneous pellets (Innovative Research of America, Sarasota, FL, USA). For acute administration, 17β-Estradiol (E2; 10 and […]) was dissolved in sesame oil (4 ml/kg, s.c.; Sigma-Aldrich, St. Louis, MO, USA).
(§3) Retired CD1 breeders were singly housed and used as aggressors. Two days prior to the start of the experiment, experimental mice were also singly housed. The stress procedure was performed using previously described methods. Briefly, experimental mice were introduced to the home cage of an aggressor for 2 min to initiate the physical attack phase. Afterward, mice were transferred and housed on the opposite side of the aggressor, in the same cage separated by a perforated Plexiglass divider for 15 mins in order to maintain sensory contact. This process was repeated 3 times over a period of ~50 min. Following the completion of the third cycle, mice were placed back in their home cages.
(§4) Acute E2 was administered 45 min prior to the initiation of stress or 5 min after the completion of stress. For the optogenetic stimulation, ChR2 and YFP-injected mice received a 4 Hz, 5 ms pulse width, 10-15 mW 470 nm light stimulation for 45 min prior to the initiation of stress. This stimulation paradigm was shown previously to increase synaptic transmission. The optogenetic set up consisted of an LED driver paired with a fiber-coupled LED light source attached to a bifurcated optogenetic path cable (400 μm, 0.49 NA; ThorLabs, Newton NJ, USA).
FUST procedure was performed 24 hours after the social interaction test and 48 hours after stress. FUST was performed using previously described methods. The amount of time mice spent interacting with a cotton-tipped applicator soaked in either fresh male or female mouse urine during a total of 3 minutes was analyzed by an experimenter blind to the experimental groups.

The test system of data set [4] is male mice. The data set is described as follows: Subthreshold social defeat stress (SSDS) followed by social interaction test. Particulars: chronic treatment; gonadally intact male mice + SSDS. The class given is in vivo, mouse. The procedure: as §1
(§5) Social Interaction: Mice are placed in a rectangular box (40 cm length×30 cm width×35 cm height; Stoelting, IL) divided into three compartments (two equal-sized end-chambers and a middle chamber) for five minute habituation phase (10-15 lux). After the habituation phase, two small wire cages are introduced into the two end chambers, one containing an unfamiliar, non-aggressive CD1 mouse and the other remaining empty. The amount of time mice spent sniffing each cage during the five-min test is assessed using CleverSys tracking software (CleverSys, Inc, Reston VA, USA).
as §2, §3, §4
as §5, with “Social interaction was performed 24 hours following subthreshold social defeat or inescapable foot-shock stress. For the habituation phase, mice were” for “Social Interaction: Mice are”, “five minutes” for “five minute habituation phase”, “cages were” for “cages are”, “test was” for “test is”

The nature of data set [5]: Body, testis and seminal vesicle weights after hormonal treatments. The class given is in vivo, mouse. Particulars: chronic treatment. How it is done:
as §2
Subcutaneous implantations were performed during the same time as the orchiectomies. The surgical area was thoroughly cleaned with Betadine solution (10% povidone-iodine surgical scrub) followed by 70% ethanol. A small, approximately 1-cm incision was made between the scapulae using a pair of small sterile surgical scissors. Hemostats were then inserted and spread laterally to the incision to create a cavity in the subcutaneous space in which ALZET mini-osmotic pumps or silastic implants were inserted for continuous drug/vehicle delivery. The skin was closed with suturing.

Data set [6] is described as follows: Pharmacokinetic assessment of the DHED-acetate prodrug, IV and PO. The class given is in vivo, mouse. How it is done: FIGS. 29A-29B illustrate the pharmacokinetic assessment of the DHED-acetate prodrug. The concentration levels of the DHED-acetate prodrug (FIG. 29A) and DHED (FIG. 29B) were measured in mice (n=3) after IV and PO administration of 5 mg/kg solution dose of DHED-acetate prodrug.
Pharmacokinetic (PK) assessment of prodrugs. […] Generally, this PK study and analysis proceeds similarly to previous studies aimed at assessing the oral bioavailability of (2R,6R)-HNK. As in previous data with DHED (FIGS. 6A-6B), male C57BL/6J mice (n=6/time point) receive 200 μg of prodrug in 0.9% (20% cyclodextrin) administered either IV or PO. Plasma and brain are collected at 5 min, 15 min, 30 min, 1 h, and 4 h after administration. PK is performed using tandem liquid chromatography-mass spectrometry (LC-MS/MS) for quantification. Pharmacokinetic analysis is performed using Phoenix WinNonLin. Non-compartmental analysis is performed to determine the following parameters: C0 (Back-extrapolated concentration at time 0); Cmax (Maximum observed concentration); Tmax (time of maximum observed concentration); AUC0-t (Area under the concentration-time curve from hour 0 to the last measurable concentration, estimated by the linear trapezoidal rule). Statistical significance is calculated using the unpaired t-test or Mann-Whitney U test for comparing AUC values. Importantly, pharmacokinetic measurements observe both the level of the prodrug and free DHED moiety in the plasma. A critical comparison is measuring the DHED levels after administration of the prodrug compared to after administration of DHED itself. […] E2 levels are measured with liquid chromatography tandem mass spectrometry (LC-MS/MS) using standard methods. […] If levels of E2 are too low to be quantified via this measure, and to distinguish naturally-produced from DHED prodrug-produced E2, E2 levels can be quantitated at the femtomole level utilizing deuterium-labelled E2 standards and triple quadrupole mass spectrometry.

As to `NS(=O)(=O)c1cccc2c1c([N+](=O)[O-])cc1nc(O)c(O)nc12` [NBQX], in data set [1], the “oPSCs in NAc of ERβ-cre mice with ChR2 in the BLA” value was “blocked”.
The same measure, in the same setting: the entry for `N[C@@H](CCCP(=O)(O)O)C(=O)O` [APV] is “blocked”.
Take `CCCCCCCCCC(=O)O[C@H]1CC[C@H]2[C@@H]3CCC4=CC(=O)CC[C@]4(C)[C@H]3CC[C@]12C` [Testosterone-decanoate]: the “oral bioavailability of testosterone” value in data set [2] was “substantially enhance the oral bioavailability”.
For `C[C@]12CC[C@H]3[C@@H](CCC4=CC(=O)CC[C@@]43C)[C@@H]1CC[C@@H]2OC(=O)[C@@H]1CCCN1C(=O)c1ccc(S(N)(=O)=O)cn1` [EC586], the “oral bioavailability of testosterone” value in data set [2] is “substantially enhance the oral bioavailability”.
In the case of `N#Cc1ccc(C(c2ccc(C#N)cc2)n2cncn2)cc1` [letrozole, Letrozole], the anhedonia following stress result in data set [3] is given as “induced a stress-susceptible phenotype”. Besides, the “social interaction deficits following stress” value in data set [4] is on record as “deficits in social interaction”. Besides, in data set [5], the body weight result is “increased body weight”, the seminal vesicle weight result is recorded as “increased seminal vesicle weight” and the testis weight result was “no difference in testes weight”.
`CC(=O)O[C@H]1CC[C@H]2[C@@H]3CCC4=CC(=O)C=C[C@]4(O)[C@H]3CC[C@]12C` [Example 1.1, (8S,9S,10S,13S,14S,17S)-10-hydroxy-13-methyl-3-oxo-6,7,8,9,10,11,12,13,14,15,16,17-dodecahydro-3H-cyclopenta[a]phenanthren-17-yl acetate]: in data set [6] (mice (n=3), 5 mg/kg solution dose, IV), the “concentration level of the prodrug after IV administration” value was “very rapidly metabolized”. The “concentration level of the prodrug after PO administration” value in data set [6] (mice (n=3), 5 mg/kg solution dose, PO) is “cannot be detected”. Besides, the “conversion of the prodrug into DHED” value in data set [6] (mice, 5 mg/kg, IV or PO) was “hydrolyzed into DHED”.
